Measurements from patent US10751288B2, “Dry processed surface coated engineering excipients” (New Jersey Institute of Technology, priority 2016, dated 2020).
Where two headings read alike, the source gives them in different places.

Tests used:
[1] = Particle size distribution by laser diffraction (Rodos/Helos); type: physicochemical; conditions: for median particle size (D50): starting materials
Description: Unless noted otherwise, particle size distribution provided herein is volume based particle size distribution was measured by a laser diffraction particle analyzer (Rodos/Helos system, Sympatec, NJ). Size statistics in terms of d10, d50 and d90 are reported, which are the values of the particle diameter at 10%, 50% and 90% respectively in the cumulative volumetric particle size distribution. In the Rodos/Helos system, the Rodos device works by venturi principle to disperse the powder, and the Helos unit uses laser diffraction principles of Fraunhofer Enhanced Evaluation (FREE) and Mie Extended Evaluation (MIEE) theories of light scattering to determine the particle size. Size statistics of d10, d50 and d90 at dispersion pressure of 0.1 bar are reported utilizing the FREE theory, the details for which can be found in Han et al. “Passivation of high surface energy sites of milled ibuprofen crystals via dry coating,” Journal of Pharmaceutical Sciences, Vol. 102(7), 1-15 (2013) and Jallo et al. “Improvement of flow and bulk density of pharmaceutical powders using surface modification,” International Journal of Pharmaceutics, 423 213-225 (2012).

[2] = Conditioned bulk density, Freeman FT4 powder tester; type: physicochemical; conditions: Example 20, APIs alone
Description: Unless otherwise noted, bulk density and flowability, i.e., flow function coefficient (FFC), as provided herein is obtained using a Freeman FT4 powder tester (Freeman Technologies Ltd., Worcestershire, UK), where the bulk density and the flow function coefficient (FFC) were defined as the ratio of consolidation stress to the unconfined yield stress. The FFC was evaluated from a shear test under the consolidation pressure of 3 kPa. Detailed procedures for both may be found in Freeman et al., Measuring the flow properties of consolidated, conditioned and aerated powders—A comparative study using a powder rheometer and a rotational shear cell. […]
Bulk density was measured through a standard FT4 testing procedure that first conditions the powder to yield very repeatable results for the bulk density as discussed in the detailed procedures of Freeman, et al. mentioned above. […] The conditioned bulk density was measured by loading the powder samples into the 25 ml split vessel above the minimum fill level. After a conditioning cycle was performed the vessel was split to remove the top portion of the powder; the density was determined from the mass of the remaining powder in the 25 ml vessel.
In addition to measuring the porosity of the tablets, the porosity of a powder sample, and its complement, packing fraction can be also determined as follows. […]

[3] = Flow function coefficient (FFC), FT4 shear test at 3 kPa; type: physicochemical; conditions: Example 20, APIs alone
[4] = True (apparent particle) density by helium pycnometer; type: physicochemical; conditions: Table 1
Description: First, the apparent particle density, […]app, for each powder (also referred to as the gas pycnometric and true density of particles) was determined using a helium multipycnometer (Model MVP-6DC, Quantachrome instruments, FL, 33426, USA; repeated five time to get an average). After this is determined, the porosity of each tablet (ε) was calculated from the apparent particle density (ρapp) and the diameter (D), thickness (t) and weight (w) of the tablets using the following equation. All quantities are in SI units.

[5] = from Huang et al., 2015; cited from earlier work
[6] = from Huang et al., 2015; cited from earlier work; remark: listed apart in the source
[7] = as-received commercial materials, Table 1

| Structure (SMILES) | median particle size (D50) [1] | bulk density [2] | FFC [3] | Particle Size D10 [1, 7] | Particle Size D50 [1, 7] | Particle Size D90 [1, 7] | True Density [4] | bulk density [5] | FFC [6] |
| --- | --- | --- | --- | --- | --- | --- | --- | --- | --- |
| O=C1O[C@H]([C@@H](O)CO)C(O)=C1O [Ascorbic Acid] | 217 microns | 0.896 g/mL | 4.67 |  |  |  |  |  |  |
| CC(C)Cc1ccc(C(C)C(=O)O)cc1 (centres unmarked) [Ibuprofen 50] | 58 microns |  |  |  |  |  |  |  |  |
| CC(=O)Nc1ccc(O)cc1 [Micronized APAP, micronized acetaminophen] |  | 0.206 g/mL |  | 2 μm | 10 μm | 37 μm | 1.29 g/mL | about 0.2 g/mL | about 2 |
